# According to US11208400B2, “Substituted 6-(1H-pyrazol-1-yl)pyrimidin-4-amine derivatives and uses thereof” (Bayer Aktiengesellschaft, priority 2016, dated 2021):
# Target: T1, human Npt2a (Homo sapiens, UniProt Q06495)
# T1 construct: expressed in transfected cells
# T1 sequence (Q06495 1-639): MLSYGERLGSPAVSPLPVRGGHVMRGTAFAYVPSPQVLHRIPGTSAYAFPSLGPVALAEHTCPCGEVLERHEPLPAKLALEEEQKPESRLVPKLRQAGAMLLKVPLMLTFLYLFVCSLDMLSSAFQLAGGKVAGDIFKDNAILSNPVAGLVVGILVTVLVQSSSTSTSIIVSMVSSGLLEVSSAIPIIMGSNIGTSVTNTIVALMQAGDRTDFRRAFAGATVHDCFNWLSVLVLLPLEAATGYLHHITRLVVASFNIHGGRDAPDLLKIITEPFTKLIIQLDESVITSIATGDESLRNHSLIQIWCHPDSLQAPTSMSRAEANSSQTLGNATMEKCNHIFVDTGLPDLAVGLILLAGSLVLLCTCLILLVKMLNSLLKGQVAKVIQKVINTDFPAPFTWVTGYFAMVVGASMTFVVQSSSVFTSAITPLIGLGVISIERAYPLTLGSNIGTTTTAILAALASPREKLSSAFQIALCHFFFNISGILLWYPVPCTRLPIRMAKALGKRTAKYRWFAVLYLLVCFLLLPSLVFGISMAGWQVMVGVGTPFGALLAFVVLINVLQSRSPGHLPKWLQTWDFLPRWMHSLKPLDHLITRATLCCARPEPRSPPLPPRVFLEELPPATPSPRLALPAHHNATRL
# Test: Npt2a activity cell based assay, membrane potential dye, CHO T-REx hNpt2a cells
# Details: doxycycline-induced, depolarization by sodium phosphate influx, average or median values if tested more than once
# In short: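 Doxycycline-induced (0.5 μg/mL, 24 h) CHO T-REx cells were loaded with membrane potential dye in sodium-free NHE buffer (pH 7.4) and exposed to compound (50 μM–1 nM, 5 min, room temperature).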
row,Compound,IC50 [nM]
1,"Cc1cc(C(C)(C)O)n(-c2cc(Nc3c(C)c(-c4ccc(OC(F)(F)F)cc4)nn3CC3CC3)ncn2)n1 [Example 291, 2-{1-[6-({1-(cyclopropylmethyl)-4-methyl-3-[4-(trifluoromethoxy)phenyl]-1H-pyrazol-5-yl}amino)pyrimidin-4-yl]-3-methyl-1H-pyrazol-5-yl}propan-2-ol]",110
2,"Cc1nn(-c2cc(Nc3c(C)c(-c4ccc(C(F)(F)F)cc4)nn3CC3CC3)ncn2)c(C)c1C(C)(C)O [Example 292, 2-{1-[6-({1-(cyclopropylmethyl)-4-methyl-3-[4-(trifluoromethyl)phenyl]-1H-pyrazol-5-yl}amino)pyrimidin-4-yl]-3,5-dimethyl-1H-pyrazol-4-yl}propan-2-ol]",240
3,"Cc1cc(C(C)(C)O)n(-c2cc(Nc3c(C)c(-c4ccc(C(F)(F)F)cc4)nn3CC3CC3)ncn2)n1 [Example 293, 2-{1-[6-({1-(cyclopropylmethyl)-4-methyl-3-[4-(trifluoromethyl)phenyl]-1H-pyrazol-5-yl}amino)pyrimidin-4-yl]-3-methyl-1H-pyrazol-5-yl}propan-2-ol]",570
4,"Cc1nn(-c2cc(Nc3c(C)c(-c4ccc(C(F)(F)F)cc4)nn3CC3CC3)ncn2)c(C(C)(C)O)c1Cl [Example 294, 2-{4-chloro-1-[6-({1-(cyclopropylmethyl)-4-methyl-3-[4-(trifluoromethyl)phenyl]-1H-pyrazol-5-yl}amino)pyrimidin-4-yl]-3-methyl-1H-pyrazol-5-yl}propan-2-ol]",1400
5,"Cc1nn(-c2cc(Nc3c(C)c(-c4ccc(F)cc4)nn3CC3CC3)ncn2)c(C)c1C(O)(C(F)(F)F)C(F)(F)F [Example 295, 2-[1-(6-{[1-(cyclopropylmethyl)-3-(4-fluorophenyl)-4-methyl-1H-pyrazol-5-yl]amino}pyrimidin-4-yl)-3,5-dimethyl-1H-pyrazol-4-yl]-1,1,1,3,3,3-hexafluoropropan-2-ol]",13
6,"CCc1c(Nc2cc(-n3nc(C)c(CN4CC(F)C4)c3C)ncn2)nn(C)c1-c1ccc(F)cc1 [Example 296, N-[4-ethyl-5-(4-fluorophenyl)-1-methyl-1H-pyrazol-3-yl]-6-{4-[(3-fluoroazetidin-1-yl)methyl]-3,5-dimethyl-1H-pyrazol-1-yl}pyrimidin-4-amine]",117
7,"CCc1c(Nc2cc(-n3nc(C)c(CN4CCN(C)CC4)c3C)ncn2)nn(C)c1-c1ccc(F)cc1 [Example 297, 6-{3,5-dimethyl-4-[(4-methylpiperazin-1-yl)methyl]-1H-pyrazol-1-yl}-N-[4-ethyl-5-(4-fluorophenyl)-1-methyl-1H-pyrazol-3-yl]pyrimidin-4-amine]",1430
8,"Cc1nn(-c2cc(Nc3c(C)c(-c4ccc(C#N)cc4)nn3C)ncn2)c(C)c1C(C)(C)O [Example 298, 4-[5-({6-[4-(2-hydroxypropan-2-yl)-3,5-dimethyl-1H-pyrazol-1-yl]pyrimidin-4-yl}amino)-1,4-dimethyl-1H-pyrazol-3-yl]benzonitrile]",17
9,"CCOC(=O)c1c(C)nn(-c2cc(Nc3nn(C)c(-c4ccc(C#N)cc4)c3C)ncn2)c1C [Example 299, ethyl 1-(6-{[5-(4-cyanophenyl)-1,4-dimethyl-1H-pyrazol-3-yl]amino}pyrimidin-4-yl)-3,5-dimethyl-1H-pyrazole-4-carboxylate]",5
10,"Cc1nn(-c2cc(Nc3nn(C)c(-c4ccc(C#N)cc4)c3C)ncn2)c(C)c1C(C)(C)O [Example 300, 4-[3-({6-[4-(2-hydroxypropan-2-yl)-3,5-dimethyl-1H-pyrazol-1-yl]pyrimidin-4-yl}amino)-1,4-dimethyl-1H-pyrazol-5-yl]benzonitrile]",88
11,"Cc1nn(-c2cc(Nc3c(C)nn(-c4ccc(C#N)cc4)c3C)ncn2)c(C)c1CC(C)(C)O [Example 301, 4-[4-({6-[4-(2-hydroxy-2-methylpropyl)-3,5-dimethyl-1H-pyrazol-1-yl]pyrimidin-4-yl}amino)-3,5-dimethyl-1H-pyrazol-1-yl]benzonitrile]",92
12,"Cc1nn(-c2cc(Nc3c(C)c(-c4ccc(F)cc4)nn3CC3CC3)ncn2)c(C)c1CC(C)(C)O [Example 302, 1-[1-(6-{[1-(cyclopropylmethyl)-3-(4-fluorophenyl)-4-methyl-1H-pyrazol-5-yl]amino}pyrimidin-4-yl)-3,5-dimethyl-1H-pyrazol-4-yl]-2-methylpropan-2-ol]",9
13,"CCOC(=O)c1c(Cl)c(C)nn1-c1cc(Nc2nn(C)c(-c3ccc(F)cc3)c2Cl)ncn1 [Example 303, ethyl 4-chloro-1-(6-{[4-chloro-5-(4-fluorophenyl)-1-methyl-1H-pyrazol-3-yl]amino}pyrimidin-4-yl)-3-methyl-1H-pyrazole-5-carboxylate]",47
14,"Cc1nn(-c2cc(Nc3nn(C)c(-c4ccc(F)cc4)c3Cl)ncn2)c(C(C)(C)O)c1Cl [Example 304, 2-[4-chloro-1-(6-{[4-chloro-5-(4-fluorophenyl)-1-methyl-1H-pyrazol-3-yl]amino}pyrimidin-4-yl)-3-methyl-1H-pyrazol-5-yl]propan-2-ol]",6
15,"Cc1cc(C)n(-c2cc(Nc3c(C)c(-c4ccc(C(F)F)cc4)nn3CC3CC3)ncn2)n1 [Example 305, N-{1-(cyclopropylmethyl)-3-[4-(difluoromethyl)phenyl]-4-methyl-1H-pyrazol-5-yl}-6-(3,5-dimethyl-1H-pyrazol-1-yl)pyrimidin-4-amine]",27
16,"Cc1cc(C)n(-c2cc(Nc3c(C)c(-c4ccc(C(F)(F)F)cc4)nn3CC3CC3)ncn2)n1 [Example 306, N-{1-(cyclopropylmethyl)-4-methyl-3-[4-(trifluoromethyl)phenyl]-1H-pyrazol-5-yl}-6-(3,5-dimethyl-1H-pyrazol-1-yl)pyrimidin-4-amine]",60
17,"Cc1cc(C(F)F)n(-c2cc(Nc3c(C)c(-c4ccc(C(F)(F)F)cc4)nn3CC3CC3)ncn2)n1 [Example 307, N-{1-(cyclopropylmethyl)-4-methyl-3-[4-(trifluoromethyl)phenyl]-1H-pyrazol-5-yl}-6-[5-(difluoromethyl)-3-methyl-1H-pyrazol-1-yl]pyrimidin-4-amine]",560
18,"Cc1cc(C)n(-c2cc(Nc3c(C)c(-c4ccc(OC(F)(F)F)cc4)nn3CC3CC3)ncn2)n1 [Example 308, N-{1-(cyclopropylmethyl)-4-methyl-3-[4-(trifluoromethoxy)phenyl]-1H-pyrazol-5-yl}-6-(3,5-dimethyl-1H-pyrazol-1-yl)pyrimidin-4-amine]",23
19,"Cc1cc(C(F)F)n(-c2cc(Nc3c(C)c(-c4ccc(OC(F)(F)F)cc4)nn3CC3CC3)ncn2)n1 [Example 309, N-{1-(cyclopropylmethyl)-4-methyl-3-[4-(trifluoromethoxy)phenyl]-1H-pyrazol-5-yl}-6-[5-(difluoromethyl)-3-methyl-1H-pyrazol-1-yl]pyrimidin-4-amine]",44
20,"Cc1nn(-c2cc(Nc3c(C)c(-c4ccc(OC(F)(F)F)cc4)nn3CC3CC3)ncn2)c(C)c1Cl [Example 310, 6-(4-chloro-3,5-dimethyl-1H-pyrazol-1-yl)-N-{1-(cyclopropylmethyl)-4-methyl-3-[4-(trifluoromethoxy)phenyl]-1H-pyrazol-5-yl}pyrimidin-4-amine]",21
21,"Cc1nn(-c2cc(Nc3c(C)c(-c4ccc(C(F)(F)F)cc4)nn3CC3CC3)ncn2)c(C)c1Cl [Example 311, 6-(4-chloro-3,5-dimethyl-1H-pyrazol-1-yl)-N-{1-(cyclopropylmethyl)-4-methyl-3-[4-(trifluoromethyl)phenyl]-1H-pyrazol-5-yl}pyrimidin-4-amine]",340
22,"Cc1cc(C)n(-c2cc(Nc3c(C)c(-c4ccc(Cl)cc4)nn3CC3CC3)ncn2)n1 [Example 312, N-[3-(4-chlorophenyl)-1-(cyclopropylmethyl)-4-methyl-1H-pyrazol-5-yl]-6-(3,5-dimethyl-1H-pyrazol-1-yl)pyrimidin-4-amine]",10
23,"Cc1cc(C(F)F)n(-c2cc(Nc3c(C)c(-c4ccc(Cl)cc4)nn3CC3CC3)ncn2)n1 [Example 313, N-[3-(4-chlorophenyl)-1-(cyclopropylmethyl)-4-methyl-1H-pyrazol-5-yl]-6-[5-(difluoromethyl)-3-methyl-1H-pyrazol-1-yl]pyrimidin-4-amine]",36
24,"CCOC(=O)c1c(C)nn(-c2cc(Nc3c(C)c(-c4ccc(Cl)cc4)nn3CC3CC3)ncn2)c1C [Example 314, ethyl 1-(6-{[3-(4-chlorophenyl)-1-(cyclopropylmethyl)-4-methyl-1H-pyrazol-5-yl]amino}pyrimidin-4-yl)-3,5-dimethyl-1H-pyrazole-4-carboxylate]",9
25,"COc1c(-c2ccc(F)cc2)nn(CC2CC2)c1Nc1cc(-n2nc(C)cc2C)ncn1 [Example 315, N-[1-(cyclopropylmethyl)-3-(4-fluorophenyl)-4-methoxy-1H-pyrazol-5-yl]-6-(3,5-dimethyl-1H-pyrazol-1-yl)pyrimidin-4-amine]",99
26,"COc1c(-c2ccc(C#N)cc2)nn(CC2CC2)c1Nc1cc(-n2nc(C)cc2C)ncn1 [Example 316, 4-[1-(cyclopropylmethyl)-5-{[6-(3,5-dimethyl-1H-pyrazol-1-yl)pyrimidin-4-yl]amino}-4-methoxy-1H-pyrazol-3-yl]benzonitrile]",81
